Measurements: patent publication US9393316B2, “Cancer targeting peptides for enhancing anti-cancer drug delivery and therapeutic efficiencies” (priority 2014, dated 2016)

Key:
colorectal cancer = experiment: Cytotoxicity of several anticancer drugs; type: cell-based; conditions: compared with other colon and rectal cancer drugs approved by the FDA
HCT116 xenografts [1] = experiment: In vivo peptide competitive inhibition of phage tumor homing; set-up: species or system mice; conditions: co-injected with corresponding phage clone
Method: (§1) Non-obese diabetic-severe combined immunodeficiency (NOD/SCID) mice were injected subcutaneously (s.c.) into the dorsolateral flank with 5×10^6 HCT116 cells. When the xenograft tumor size reached 300±50 mm^3, the mice were injected intravascularly (i.v.) with 2×10^11 pfu of the targeting phage or control phage M13KO7. Seven min after injection, the mice were sacrificed and perfused through the heart with 50 mL of PBS to wash unbound phages. After perfusion, xenograft tumor and mouse organs were taken out, washed three times with cold PBS, and cut into pans, with some of them homogenized. The phages bound to each tissue sample were recovered by log-phase Escherichia coli ER2738 culture and were titered on LB/IPTG/X-Gal agar plates. In peptide competitive inhibition experiments, 2×10^9 pfu of phage was co-injected with 100 μg of corresponding peptide or an unrelated control peptide.
The tumor-homing ability of HCT63, HCT69 and HCT74 phages were further confirmed by peptide competitive inhibition experiment. Mice bearing HCT116 xenografts were co-injected with HCT63, HCT69 and HCT74 phages clones and the homologous cognate synthetic peptide; pHCT63, pHCT69 and pHCT74 peptides (SEQ ID NOs: 1-3, respectively), respectively.

HCT116 cells [2] = experiment: ELISA screening of phage clones on HCT116 cells (cellular ELISA); type: binding, human; conditions: HCT116, cell line panel
Method: (§2) The selected phages were further identified by ELISA screening. 1×10^4 cells were seeded into each well of 96-well ELISA plates (Falcon, Calif., USA) overnight and were fixed with 2% paraformaldehyde or methanol/acetone (1:1) for 10 min at RT. The plates were washed twice with PBS and were blocked with 1% BSA in PBS (w/v) for 30 min at RT. Then individual phage clones were added and incubated for 1 hr at RT. Following washing three times with PBS, the plates were incubated with horseradish peroxidase (HRP)-conjugated mouse anti-M13 phage antibody (GE Healthcare) at 1:2000 dilution for 1 hr at RT. The plates were washed three times with PBS again, and were subsequently incubated with the peroxidase substrate o-phenylenediamine dihydrochloride (OPD; Sigma) plus H2O2. The reaction was terminated by 3 N HCl, and the absorbance was measured using microplate reader (Model 680, BioRad) at 490 nm.

COLO205 = experiment: Flow cytometry surface binding of phage clones; set-up: species or system human
Method: (§3) Cells were grown to 70-80% confluence and were harvested with 10 mM EDTA in PBS. Peripheral blood mononuclear cells were prepared by using Ficoll-Paque Plus density gradient separation. After washing and suspending the cells with FACS buffer (PBS containing 1% fetal bovine serum), the cells were incubated for 1 hr at 4° C. with 5×10^9, 1×10^9 cfu individual phage clones or control phage, respectively. After washing twice with FACS buffer, cells were incubated with mouse anti-M13 monoclonal antibody (GE Healthcare) at 1:2000 dilution for 1 hr followed by 30 min with phycoerythrin (PE)-conjugated goat anti-mouse secondary antibody (Jackson ImmunoResearch) at 1:250 dilution at 4° C. The emission fluorescence signals were measured using FACSCantoll (Becton Dickinson) and were analyzed by FlowJo software.

HCT116 cells [3] = experiment: Flow cytometry surface binding of phage clones; set-up: species or system human
Method: as §3

HT29 = experiment: Flow cytometry surface binding of phage clones; set-up: species or system human
Method: as §3

LS174T = experiment: Flow cytometry surface binding of phage clones; set-up: species or system human
Method: as §3

SW620 = experiment: Flow cytometry surface binding of phage clones; set-up: species or system human
Method: as §3

[4] = test system: peripheral blood mononuclear cells (PBMC); experiment: Flow cytometry binding of phage clones to normal cells; conditions: human PBMC
Method: as §3

HCT116 xenografts [5] = experiment: In vivo tumor homing, phage titer in tumor and organs; set-up: species or system mice; conditions: 2×10^11 pfu i.v., PBS perfusion; vs brain, lungs, heart
Method: as §1
To investigate the targeting ability of the selected phage clones in vivo, mice bearing HCT116 xenografts (300 mm^3) were injected with 2×10^11 pfu of either the selected phages or control phage through the tail vein. Phages were circulated and then were perfused with PBS buffer to wash out non-specific binders in circulation. After perfusion, we recovered and determined the […] of phage in tumor masses and normal organs.

HCT116 xenografts [6] = experiment: Immunohistochemical localization of phages in xenograft tumor and organs; type: in vivo, mice; conditions: tumor vs brain, heart, lungs, colon
Method: The tissue samples from in vivo phage homing experiment were embedded in frozen blocks. To evaluate the phage distribution in each tissue by immunohistochemistry, the frozen specimens were cut to 8-μm-thick sections and were collected on coated slides. The slides were washed with cold PBS to remove OCT and were fixed with 4% paraformaldehyde for 10 min at RT. To block endogenous peroxidase activity, the slides were soaked with 3% hydrogen peroxide in methanol for 30 min at RT. The nonspecific antibody binding sites were blocked by immersing the section with 1% BSA in PBS for 30 min at RT. The tissue sections were incubated with mouse anti-M13 monoclonal antibody at 1:250 dilution for 1 hr, followed by adding Super Enhancer reagent (Super SENSITIVE™ Polymer HRP Detection System/DAB, BioGenex) for 20 min and Poly-HRP reagent (BioGenex) for 30 min. After washing, the sections were developed with DAB (3,3′-diaminobenzidine) Chromogen (BioGenex) supplemented with Stable DAB buffer. The reaction was stopped by adding PBS. For nuclei staining, the slides were immersed in hematoxylin for 5 min, and were then mounted with mounting solution to terminate the reaction. The images of sections were taken and analyzed using automated acquisition system (TissueGnostics).

1112SK = experiment: Cellular ELISA of phage clones; type: binding, human
Method: as §2, with “nm. To evaluate the binding activities of the three selected phage clones to various human cancer cell lines, cellular ELISA was performed to detect sixteen types of human cancer cell lines, including A498, HTB-10, B16-F10, SKOV3, PC-3, U2OS, 1112SK, […], SAS, H460, MIA Paca-2, HCT116, HUVAC, CL1-5, Mahlavu, and MDA-MB-231.” for “nm.”

A498 = experiment: Cellular ELISA of phage clones; type: binding, human
Method: as §2, with “nm. To evaluate the binding activities of the three selected phage clones to various human cancer cell lines, cellular ELISA was performed to detect sixteen types of human cancer cell lines, including A498, HTB-10, B16-F10, SKOV3, PC-3, U2OS, 1112SK, […], SAS, H460, MIA Paca-2, HCT116, HUVAC, CL1-5, Mahlavu, and MDA-MB-231.” for “nm.”

CL1-5 = experiment: Cellular ELISA of phage clones; type: binding, human
Method: as §2, with “nm. To evaluate the binding activities of the three selected phage clones to various human cancer cell lines, cellular ELISA was performed to detect sixteen types of human cancer cell lines, including A498, HTB-10, B16-F10, SKOV3, PC-3, U2OS, 1112SK, […], SAS, H460, MIA Paca-2, HCT116, HUVAC, CL1-5, Mahlavu, and MDA-MB-231.” for “nm.”

H184 = experiment: Cellular ELISA of phage clones; type: binding, human
Method: as §2, with “nm. To evaluate the binding activities of the three selected phage clones to various human cancer cell lines, cellular ELISA was performed to detect sixteen types of human cancer cell lines, including A498, HTB-10, B16-F10, SKOV3, PC-3, U2OS, 1112SK, […], SAS, H460, MIA Paca-2, HCT116, HUVAC, CL1-5, Mahlavu, and MDA-MB-231.” for “nm.”

H460 = experiment: Cellular ELISA of phage clones; type: binding, human
Method: as §2, with “nm. To evaluate the binding activities of the three selected phage clones to various human cancer cell lines, cellular ELISA was performed to detect sixteen types of human cancer cell lines, including A498, HTB-10, B16-F10, SKOV3, PC-3, U2OS, 1112SK, […], SAS, H460, MIA Paca-2, HCT116, HUVAC, CL1-5, Mahlavu, and MDA-MB-231.” for “nm.”

HUVAC = experiment: Cellular ELISA of phage clones; type: binding, human
Method: as §2, with “nm. To evaluate the binding activities of the three selected phage clones to various human cancer cell lines, cellular ELISA was performed to detect sixteen types of human cancer cell lines, including A498, HTB-10, B16-F10, SKOV3, PC-3, U2OS, 1112SK, […], SAS, H460, MIA Paca-2, HCT116, HUVAC, CL1-5, Mahlavu, and MDA-MB-231.” for “nm.”

MDA-MB-231 = experiment: Cellular ELISA of phage clones; type: binding, human
Method: as §2, with “nm. To evaluate the binding activities of the three selected phage clones to various human cancer cell lines, cellular ELISA was performed to detect sixteen types of human cancer cell lines, including A498, HTB-10, B16-F10, SKOV3, PC-3, U2OS, 1112SK, […], SAS, H460, MIA Paca-2, HCT116, HUVAC, CL1-5, Mahlavu, and MDA-MB-231.” for “nm.”

MIA Paca-2 = experiment: Cellular ELISA of phage clones; type: binding, human
Method: as §2, with “nm. To evaluate the binding activities of the three selected phage clones to various human cancer cell lines, cellular ELISA was performed to detect sixteen types of human cancer cell lines, including A498, HTB-10, B16-F10, SKOV3, PC-3, U2OS, 1112SK, […], SAS, H460, MIA Paca-2, HCT116, HUVAC, CL1-5, Mahlavu, and MDA-MB-231.” for “nm.”

Mahlavu = experiment: Cellular ELISA of phage clones; type: binding, human
Method: as §2, with “nm. To evaluate the binding activities of the three selected phage clones to various human cancer cell lines, cellular ELISA was performed to detect sixteen types of human cancer cell lines, including A498, HTB-10, B16-F10, SKOV3, PC-3, U2OS, 1112SK, […], SAS, H460, MIA Paca-2, HCT116, HUVAC, CL1-5, Mahlavu, and MDA-MB-231.” for “nm.”

PC-3 = experiment: Cellular ELISA of phage clones; type: binding, human
Method: as §2, with “nm. To evaluate the binding activities of the three selected phage clones to various human cancer cell lines, cellular ELISA was performed to detect sixteen types of human cancer cell lines, including A498, HTB-10, B16-F10, SKOV3, PC-3, U2OS, 1112SK, […], SAS, H460, MIA Paca-2, HCT116, HUVAC, CL1-5, Mahlavu, and MDA-MB-231.” for “nm.”

SAS = experiment: Cellular ELISA of phage clones; type: binding, human
Method: as §2, with “nm. To evaluate the binding activities of the three selected phage clones to various human cancer cell lines, cellular ELISA was performed to detect sixteen types of human cancer cell lines, including A498, HTB-10, B16-F10, SKOV3, PC-3, U2OS, 1112SK, […], SAS, H460, MIA Paca-2, HCT116, HUVAC, CL1-5, Mahlavu, and MDA-MB-231.” for “nm.”

SKOV3 = experiment: Cellular ELISA of phage clones; type: binding, human
Method: as §2, with “nm. To evaluate the binding activities of the three selected phage clones to various human cancer cell lines, cellular ELISA was performed to detect sixteen types of human cancer cell lines, including A498, HTB-10, B16-F10, SKOV3, PC-3, U2OS, 1112SK, […], SAS, H460, MIA Paca-2, HCT116, HUVAC, CL1-5, Mahlavu, and MDA-MB-231.” for “nm.”

U2OS = experiment: Cellular ELISA of phage clones; type: binding, human
Method: as §2, with “nm. To evaluate the binding activities of the three selected phage clones to various human cancer cell lines, cellular ELISA was performed to detect sixteen types of human cancer cell lines, including A498, HTB-10, B16-F10, SKOV3, PC-3, U2OS, 1112SK, […], SAS, H460, MIA Paca-2, HCT116, HUVAC, CL1-5, Mahlavu, and MDA-MB-231.” for “nm.”

B16-F10 = experiment: Cellular ELISA of phage clones; type: binding, mouse
Method: as §2, with “nm. To evaluate the binding activities of the three selected phage clones to various human cancer cell lines, cellular ELISA was performed to detect sixteen types of human cancer cell lines, including A498, HTB-10, B16-F10, SKOV3, PC-3, U2OS, 1112SK, […], SAS, H460, MIA Paca-2, HCT116, HUVAC, CL1-5, Mahlavu, and MDA-MB-231.” for “nm.”

CCC1=C[C@@H]2CN(C1)Cc1c([nH]c3ccccc13)[C@@](C(=O)OC)(c1cc3c(cc1OC)N(C)[C@H]1[C@@](O)(C(=O)OC)[C@H](OC(C)=O)[C@]4(CC)C=CCN5CC[C@]31[C@@H]54)C2 [Vinorelbine, vinorelbine]
cytotoxicity profile (colorectal cancer): significantly better cytotoxicity profiles

RLNLDIIAVTSV (HCT-63) [pHCT63]
inhibition of phage recovery from tumor tissue by cognate peptide (HCT116 xenografts [1]): markedly inhibited the recovery of phage particles from tumor tissue

RLNLDIIAVTSV [HCT63]
binding by cellular ELISA (HCT116 cells [2]): high binding specificity
binding activity by FACS (COLO205): moderately
cell surface-binding activity by flow cytometry (HCT116 cells [3]): reacted strongly
binding activity by FACS (HT29): reacted strongly
binding activity by FACS (LS174T): reacted strongly
binding activity by FACS (SW620): reacted strongly
binding activity to PBMC (normal cells) by FACS [4]: not to normal cells
phage accumulation in tumor mass vs normal organs (phage titer) (HCT116 xenografts [5]): significantly accumulated in the tumor mass
phage localization by immunostaining of tissue sections (HCT116 xenografts [6]): selectively localized in tumor tissues
phage localization by immunostaining of tissue sections (HCT116 xenografts [6]; listed as HCT-63): strong accumulated in the tumor
binding by cellular ELISA (1112SK): high binding specificity
binding by cellular ELISA (A498): high binding specificity
binding by cellular ELISA (CL1-5): high binding specificity
binding by cellular ELISA (H184): high binding specificity
binding by cellular ELISA (H460): high binding specificity
binding by cellular ELISA (HUVAC): high binding specificity
binding by cellular ELISA (MDA-MB-231): high binding specificity
binding by cellular ELISA (MIA Paca-2): high binding specificity
binding by cellular ELISA (Mahlavu): high binding specificity
binding by cellular ELISA (PC-3): high binding specificity
binding by cellular ELISA (SAS): high binding specificity
binding by cellular ELISA (SKOV3): high binding specificity
binding by cellular ELISA (U2OS): high binding specificity
binding by cellular ELISA (B16-F10): high binding specificity
